Test results from patent US20200345021A1, “METHOD AND SYSTEM FOR ENHANCING THE EFFICACY USING IONIZED/A[…] PEROXIDE IN REDUCING MICROBIAL POPULATIONS, METHOD OF USE THEREOF” (priority 2019, published 2020).
Marks after values point to notes of the source that are not given here.

Key:
Listeria innocua = assay: Effect of cold plasma activation on efficacy of ionized/aerosolized H2O2 against Listeria innocua (Study 2); format: cell-based; settings: for Reductions of Listeria on all types and surfaces of fresh produce except the tomato stem scar area: optimized conditions
Description: To minimize the risk of possible bacteria becoming airborne during treatments, attenuated and non-pathogenic bacteria were used in the study. Two strains of non-pathogenic S. Typhimurium (ATCC 53647 and 53648) and three strains of L. innocua (ATCC 33090, ATCC 51742 and ATCC BAA680) were obtained from American Type Culture Collection (ATCC) (Manassas, Va., USA). Further studies used E. coli O157:H7 (ATCC 700728), S. Typhimurium (ATCC 53647 and 53648), and L. innocua (ATCC 33090) obtained from American Type Culture Collection (ATCC) (Manassas, Va., USA) and maintained as a part of the culture collection at the USDA Eastern Regional Research Center (Wyndmoor, Pa. USA). The bacteria were made to be resistant to nalidixic acid by successive growth in Trypic Soy Broth (TSB) (Difco, Sparks, Md., USA) with increasing nalidixic acid concentrations. All strains were stored at −80° C. in 1 mL of TSB containing 10% glycerol. Working cultures of S. Typhimurium and L. innocua were maintained in 9 mL TSB (supplemented with 100 μg/mL nalidixic acid for S. Typhimurium) at 4° C. after incubating at 37° C. for […], respectively, and sub-cultured each time.
Each strain of S. Typhimurium and L. innocua was cultured in 9 mL TSB (supplemented with 100 μg/mL nalidixic acid for S. Typhimurium) and incubated at 37° C. for 40 h and 48 h, respectively, harvested by centrifugation at 4000×g for 10 min at 4° C., and resuspended in 9 mL sterile Buffered Peptone Water (BPW; Difco). The pellets were resuspended in BPW to form cell suspensions with a final concentration of 108˜10^9 CFU/mL. Subsequently, suspended pellets of two strains of Salmonella and three strains of L. innocua were combined to obtain two separate culture cocktails.
Grape tomatoes, granny smith apples, romaine lettuce and cantaloupes were purchased from local markets (Philadelphia, Pa., USA) and kept at 10° C. prior to use. Fruits and vegetables were removed from 10° C. refrigeration and equilibrated to ambient temperature before being inoculated. Romaine lettuce was divided into upper green leaf and midrib tissues. Six tomatoes, six pieces (2×2 cm) of apple skins, five pieces (3×3 cm) of Romaine lettuce upper leaves, five pieces (3 cm length) of Romaine lettuce midrib area and six pieces (2×2 cm) of cantaloupe rinds with 2×3 mm thickness of flesh were used for each treatment per replicate. Bach piece w as spot inoculated with 10 μL of Salmonella and L. innocua by depositing droplets with a micropipette. The inoculated samples were dried in a bio-hood for 1 h (for tomato surfaces, romaine lettuce, apple skins and cantaloupe rinds) or 2 h (for tomato stem scars) at ambient temperature.
Produce items were placed onto a sterile test tube rack with the inoculated area facing up and the rack with produce pieces were placed inside of a treatment chamber (12×12×24 inch).
Therefore, each kind of produce was treated with and without cold plasma ionized under the same optimized conditions.
After each treatment, the tomato stem scars and surfaces with the inoculated bacteria were removed using a pair of sterile scissors. Each type of produce item from the same treatment was combined (total weight: 1.51±0.29 g for tomato stem scars; 2.07±0.15 g for tomato surfaces; 6.37±0.92 g for apple skins; 1.62±0.34 g for Romaine lettuce upper leaves: 13.30±2.97 g for Romaine lettuce midrib tissues: 9.58±1.26 g for cantaloupe rinds) and transferred into an 80 mL filtered stomacher bag. After addition of 30 mL BBL buffered peptone water into the bag, the sample in the bag was homogenized using a mini blender (Mini Mix CC, Interscience laboratories Inc., Woburn, Mass., USA) for 2 min at a setting of 4. […] Tryptic Soy Agar with 200 μg/mL pyruvate acid and 100 μg/mL nalidixic acid (TSA-PN) and PALCAM Agars (Difco) were used for the enumeration of S. Typhimurium and L. innocua, respectively.

[1] = Tomato-stem scar, three cycles of 20 s spray time plus 20 min dwell time, listed as H2O2 + cold plasma

SMILES: OO [H2O2, hydrogen peroxide]
- Listeria reductions for cantaloupes and two locations on lettuces (Listeria innocua): 2.61 to 3.40 log CFU/piece
- Populations of Listeria innocua (Listeria innocua; Cantaloupe rind, 30 s spray time + 30 min dwell, ND1: not detectable (detection limit 0.70 log CFU/piece), listed as H2O2 + cold plasma): ND1^c
- Reductions of Listeria innocua (Listeria innocua; Cantaloupe rind, 30 s spray time + 30 min dwell, listed as H2O2 + cold plasma): 5.10 ± 0.30^x log CFU/piece
- Populations of Listeria innocua (Listeria innocua; Granny Smith apple, 8 s spray time + 30 min dwell, ND1: not detectable (detection limit 0.70 log CFU/piece), listed as H2O2 + cold plasma): ND1^c
- Reductions of Listeria innocua (Listeria innocua; Granny Smith apple, 8 s spray time + 30 min dwell, listed as H2O2 + cold plasma): 5.24 ± 0.22^x log CFU/piece
- Populations of Listeria innocua (Listeria innocua; Romaine lettuce-midrib, 30 s spray time + 30 min dwell, ND2: not detectable (detection limit 0.76 log CFU/piece), listed as H2O2 + cold plasma): ND2^c
- Reductions of Listeria innocua (Listeria innocua; Romaine lettuce-midrib, 30 s spray time + 30 min dwell, listed as H2O2 + cold plasma): 5.21 ± 0.11^x log CFU/piece
- Populations of Listeria innocua (Listeria innocua; Romaine lettuce-upper leaf, 30 s spray time + 30 min dwell, ND2: not detectable (detection limit 0.76 log CFU/piece), listed as H2O2 + cold plasma): ND2^c
- Reductions of Listeria innocua (Listeria innocua; Romaine lettuce-upper leaf, 30 s spray time + 30 min dwell, listed as H2O2 + cold plasma): 5.19 ± 0.08^x log CFU/piece
- Populations of Listeria innocua (Listeria innocua; [1]): 2.94 ± 0.89^c log CFU/piece
- Reductions of Listeria innocua (Listeria innocua; [1]): 2.62 ± 0.89^x log CFU/piece
- Reductions of Listeria innocua (Listeria innocua; Tomato-stem scar, three cycles of 20 s spray time plus 20 min dwell time, listed as iHP): 2.36 log CFU/piece
- Populations of Listeria innocua (Listeria innocua; Tomato-surface, 8 s spray time + 30 min dwell, ND1: not detectable (detection limit 0.70 log CFU/piece), listed as H2O2 + cold plasma): ND1^c
- Reductions of Listeria innocua (Listeria innocua; Tomato-surface, 8 s spray time + 30 min dwell, listed as H2O2 + cold plasma): 5.16 ± 0.20^x log CFU/piece
- Reductions of Listeria on all types and surfaces of fresh produce except the tomato stem scar area (Listeria innocua; listed as cold plasma-activated hydrogen peroxide (H2O2)): > 5 log CFU/piece
- Reductions of Listeria on all types and surfaces of fresh produce except the tomato stem scar area (Listeria innocua; listed as hydrogen peroxide (H2O2) with cold plasma): more than 5 log CFU/piece
- Reductions of Listeria on all types and surfaces of fresh produce except the tomato stem scar area (Listeria innocua; listed as iHP): more than 5 log CFU/piece
- Reduction of Salmonella (S. Typhimurium): 4.2 log CFU/leaf
